In brackets after ≈: the same amount, converted by molar mass. Like-named read-outs stand apart in the source and are kept apart here.
Columns and labels:
Experiment in all cases: In vitro antibacterial spectrum, agar plate dilution method (MIC)
Assay type in all cases: cell-based
Escherichia coli = conditions: 10^4 CFU, 18 hours at 35° C
Method: (§1) The in vitro antimicrobial spectrum of the compounds of the invention were determined by the agar plate dilution method with Mueller-Hinton agar and an inoculum of each test organism of approximately 10^4 colony forming units delivered by the steers replicating device. The minimal inhibitory concentration (MIC) in mcg/ml is defined as the lowest concentration of test compound that inhibited visible growth after 18 hours incubation at 35° C.

Citrobacter diversus = conditions: Citrobacter koseri; Citrobacter diversus K 82-24; Mueller-Hinton agar, 10^4 CFU, 18 hours at 35° C
Method: as §1

Staphylococcus aureus = conditions: Mueller-Hinton agar, 10^4 CFU, 18 hours at 35° C
Method: as §1

Streptococcus faecalis = conditions: Mueller-Hinton agar, 10^4 CFU, 18 hours at 35° C
Method: as §1

Proteus rettgeri = conditions: Providencia rettgeri; Proteus rettgeri IO 83-21; Mueller-Hinton agar, 10^4 CFU, 18 hours at 35° C
Method: as §1

Providencia stuartii = Providencia stuartii CMC 83-3; Mueller-Hinton agar, 10^4 CFU, 18 hours at 35° C
Method: as §1

Enterobacter cloacae = conditions: 18 h, 10^4 CFU, 18 hours at 35° C
Method: as §1

Serratia marcescens = conditions: 18 h, 10^4 CFU, 18 hours at 35° C
Method: as §1

Morganella morganii = conditions: 18 h, 10^4 CFU, 18 hours at 35° C
Method: as §1

Pseudomonas aeruginosa = conditions: Mueller-Hinton agar, 10^4 CFU, 18 hours at 35° C
Method: as §1

Klebsiella nneumoniae = conditions: Mueller-Hinton agar, 10^4 CFU, 18 hours at 35° C
Method: as §1

## CN1CCN(c2cc3c(cc2F)c(=O)c(C(=O)O)c2ccccn23)CC1 [Example 6, 8-Fluoro-9-(4-methyl-1-piperazinyl)-6-oxo-6H-benzo[c]quinolizine-5-carboxylic acid]
Escherichia coli; 18 h, Escherichia coli CMC 84-50, Mueller-Hinton agar
  MIC: 2 µg/mL (≈ 5.63 µM)
Escherichia coli; 18 h, Escherichia coli D 21, Mueller-Hinton agar
  MIC: 4 µg/mL (≈ 11.3 µM)
Escherichia coli; 18 h, Escherichia coli D 22, Mueller-Hinton agar
  MIC: 2 µg/mL (≈ 5.63 µM)
Escherichia coli; 18 h, Escherichia coli MOR 84-20, Mueller-Hinton agar
  MIC: 2 µg/mL (≈ 5.63 µM)
Escherichia coli; 18 h, Escherichia coli VGH 84-19, Mueller-Hinton agar
  MIC: 4 µg/mL (≈ 11.3 µM)
Escherichia coli; ATCC25922, 18 h, Escherichia coli ATCC 25922, Mueller-Hinton agar
  MIC: 4 µg/mL (≈ 11.3 µM)
Citrobacter diversus
  MIC: 4 µg/mL (≈ 11.3 µM)
Staphylococcus aureus; ATCC25913, Staphylococcus aureus ATCC 25913, read-out: MIC
  MIC: > 16 µg/mL
Staphylococcus aureus; Staphylococcus aureus CMC 83-131
  MIC: > 16 µg/mL
Staphylococcus aureus; Staphylococcus aureus K 82-26
  MIC: > 16 µg/mL
Staphylococcus aureus; Staphylococcus aureus VGH 84-47, read-out: MIC
  MIC: > 16 µg/mL
Streptococcus faecalis; Enterococcus faecalis, Streptococcus faecalis VCI 85-30, read-out: MIC
  MIC: > 16 µg/mL
Streptococcus faecalis; Streptococcus faecalis CMC 83-120
  MIC: > 16 µg/mL
Streptococcus faecalis; Streptococcus faecalis VGH 84-69
  MIC: > 16 µg/mL
Proteus rettgeri
  MIC: 1 µg/mL (≈ 2.81 µM)
Providencia stuartii
  MIC: > 16 µg/mL
Enterobacter cloacae; Enterobacter cloacae K 84-10, Mueller-Hinton agar
  MIC: 2 µg/mL (≈ 5.63 µM)
Enterobacter cloacae; Enterobacter cloacae MOR 84-30, Mueller-Hinton agar
  MIC: 16 µg/mL (≈ 45 µM)
Enterobacter cloacae; Enterobacter cloacae VGH 84-39, Mueller-Hinton agar
  MIC: 2 µg/mL (≈ 5.63 µM)
Serratia marcescens; Serratia marcescens CMC 83-74, Mueller-Hinton agar
  MIC: > 16 µg/mL
Serratia marcescens; Serratia marcescens IO 83-63, Mueller-Hinton agar
  MIC: 4 µg/mL (≈ 11.3 µM)
Serratia marcescens; Serratia marcescens MOR 84-41, Mueller-Hinton agar
  MIC: 2 µg/mL (≈ 5.63 µM)
Morganella morganii; Morganella morganii CMC 84-38, Mueller-Hinton agar
  MIC: 0.5 µg/mL (≈ 1.41 µM)
Morganella morganii; Morganella morganii VGH 84-12, Mueller-Hinton agar
  MIC: 4 µg/mL (≈ 11.3 µM)
Morganella morganii; Moroanella morganii MOR 84-45, Mueller-Hinton agar
  MIC: 0.5 µg/mL (≈ 1.41 µM)
Pseudomonas aeruginosa; Pseudomonas aeruginosa CMC 83-20
  MIC: > 16 µg/mL
Pseudomonas aeruginosa; Pseudomonas aeruginosa K 84-16, read-out: MIC
  MIC: > 16 µg/mL
Pseudomonas aeruginosa; Pseudomonas aeruginosa VGH 84-3
  MIC: > 16 µg/mL
Klebsiella nneumoniae; Klebsiella nneumoniae IO 83-5
  MIC: 8 µg/mL (≈ 22.5 µM)
Klebsiella nneumoniae; Klebsiella nneumoniae MOR 84-24, read-out: MIC
  MIC: 8 µg/mL (≈ 22.5 µM)
Klebsiella nneumoniae; Klebsiella oneumoniae CMC 84-31
  MIC: 8 µg/mL (≈ 22.5 µM)
